Values quoted from earlier work as cited in publication PMC7482441 (Pharmacological Research, 2020).

Legend:
BIO 14.6 hamster = settings: cited from earlier work
mdx mice = settings: cited from earlier work

CC(C)c1ccc(C(=O)NC(=N)N)cc1S(C)(=O)=O [Cariporide]
intracellular Ca2+ levels and Na+ influx (BIO 14.6 hamster): normalised
creatine kinase (CK) levels, inflammation, fibrosis and histological skeletal muscle damage (mdx mice): markedly reduced
